Test results: paper PMC7321301, “Characteristics of New Peptides GQLGEHGGAGMG, GEHGGAGMGGGQFQPV, EQGFLPGPEESGR, RLARAGLAQ, YGNPVGGVGH, and GNPVGGVGHGTTGT as Inhibitors of Enzymes Involved in Metabolic Syndrome and Antimicrobial Potential” (Molecules, 2020)
No end group written: not given here.

Experiments:
COX-2 = target: T1, COX-2 (Homo sapiens, UniProt P35354); experiment: COX-2 inhibitory activity (COX Activity Assay kit) and kinetics; type: biochemical; settings: mean ± SD, triplicate
T1 construct: purchased Cayman Chemical 760151
T1 sequence (P35354 18-604): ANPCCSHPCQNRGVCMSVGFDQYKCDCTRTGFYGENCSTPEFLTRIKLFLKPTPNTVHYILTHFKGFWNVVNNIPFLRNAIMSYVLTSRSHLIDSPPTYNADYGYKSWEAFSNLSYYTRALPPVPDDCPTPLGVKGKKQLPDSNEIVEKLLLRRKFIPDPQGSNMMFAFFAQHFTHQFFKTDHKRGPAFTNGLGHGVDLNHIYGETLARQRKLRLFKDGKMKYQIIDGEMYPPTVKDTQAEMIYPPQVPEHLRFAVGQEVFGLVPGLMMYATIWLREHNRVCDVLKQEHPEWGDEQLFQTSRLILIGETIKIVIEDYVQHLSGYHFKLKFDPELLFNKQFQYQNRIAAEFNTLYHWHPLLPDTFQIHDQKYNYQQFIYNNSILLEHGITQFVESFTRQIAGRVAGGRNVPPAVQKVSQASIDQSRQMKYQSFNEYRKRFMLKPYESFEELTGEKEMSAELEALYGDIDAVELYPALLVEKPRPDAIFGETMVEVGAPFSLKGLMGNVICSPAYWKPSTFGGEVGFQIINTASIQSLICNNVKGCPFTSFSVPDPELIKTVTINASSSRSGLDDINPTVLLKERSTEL
Experimental: For all inhibitory activity, IC50 was calculated. The IC50 value defined as the concentration of the extract inhibiting 50% of the enzyme activity was determined by measuring the enzyme inhibitory activity and peptide contents in each sample. The IC50 value was calculated from the plotted graph of the inhibition activity for the five different peptide concentrations.
(§1) The effect of the peptide on COX-1 and COX-2 was measured using the COX Activity Assay kit from Cayman Chemical (Item No. 760151, Ann Arbor, MI, USA). COX activity was determined according to the instructions provided with the kit. The enzyme activity was assayed by calorimetric measurement of the appearance of oxidized N,N,N′,N′-Tetramethyl-p-phenylenediamine (TMPD) at 590 nm using BioTek Microplate Readers (Epoch™ 2 BioTek, Bad Friedrichshall, Germany).
Substrate solutions (5.0, 10.0, 15.0, and 20.0 mM) were prepared and used to determine the Michaelis constant (Km), the inhibition constant (Ki), and the maximum velocity (Vmax) of enzymes. The kinetic parameters were evaluated by Lineweaver–Burk’s method. The reaction conditions were the same as in the enzyme inhibitory activity assay.

COX-1 = target: T2, COX-1 (Ovis aries, UniProt P05979); experiment: COX-1 inhibitory activity (COX Activity Assay kit) and kinetics; type: biochemical
T2 sequence (P05979 25-600): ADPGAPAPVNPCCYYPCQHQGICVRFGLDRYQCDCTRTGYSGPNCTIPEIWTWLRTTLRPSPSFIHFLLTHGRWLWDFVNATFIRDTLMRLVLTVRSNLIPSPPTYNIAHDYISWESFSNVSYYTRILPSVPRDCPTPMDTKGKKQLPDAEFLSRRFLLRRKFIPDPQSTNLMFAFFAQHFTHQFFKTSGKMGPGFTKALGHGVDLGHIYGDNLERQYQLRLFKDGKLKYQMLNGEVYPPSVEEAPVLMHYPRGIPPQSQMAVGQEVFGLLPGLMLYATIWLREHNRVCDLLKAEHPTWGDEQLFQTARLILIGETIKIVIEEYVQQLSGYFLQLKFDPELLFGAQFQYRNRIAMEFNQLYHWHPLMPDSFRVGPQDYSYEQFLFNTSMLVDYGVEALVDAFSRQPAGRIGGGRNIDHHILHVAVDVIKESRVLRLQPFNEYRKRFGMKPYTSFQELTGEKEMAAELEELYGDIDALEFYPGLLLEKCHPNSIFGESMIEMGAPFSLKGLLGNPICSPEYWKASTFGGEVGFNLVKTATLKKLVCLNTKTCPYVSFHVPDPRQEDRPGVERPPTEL
Experimental: as §1, with “For all inhibitory activity, IC50 was calculated. […] The IC50 value was calculated from the plotted graph of the inhibition activity for the five different peptide concentrations. The effect” for “The effect”, “Friedrichshall, Germany). […] The kinetic parameters were evaluated by Lineweaver–Burk’s method. The reaction conditions were the same as in the enzyme inhibitory activity assay.” for “Friedrichshall, Germany).”

HECa10 cells = experiment: MTT test; type: cell-based, murine; settings: 24-h incubation, 0.1–100 µg/mL
Experimental: The study was conducted according to the procedure described by Rokicki et al.. HECa10 cells after 80–90% confluence were trypsinized (3 min, 37 °C), centrifuged (300 g, 5 min), counted, and plated in 96-well plates at a concentration of 1 × 10^4 cells/well. Then, 24 h after seeding, cells were washed with phosphate-buffered saline (PBS) solution and culture medium (Dulbecco’s Modified Eagle Medium (DMEM) + 10% fetal bovine serum (FBS) + antibiotics, all from Life Technologies, Warsaw, Poland) was added with test factors in concentrations: 0.1; 1; 5; 10; 50; 100 µg/mL). Then, 24 h after addition of the compounds, proliferation tests (MTT, NR, LDH) were performed. The color intensity was determined using a Fluostar Omega microplate reader. Results are presented as the mean ± SD of 3 independent experiments (n = 12).
Briefly, the cells were seeded in a 96-well culture plate at a concentration of 1 × 10^4 cells/well. Then, 24 h after seeding, the cells were rinsed twice with PBS (Life Technologies, Warsaw, Poland) and resuspended in fresh growth medium. Peptide fractions were added at concentrations of 0 (control), 0.1, 1, 5, 10, 50, and 100 µg/mL. After 24 h incubation with the proteins, the assessment of cell metabolic activity based on MTT tests was performed (MTT kit, Sigma Aldrich, Poznań, Poland). The absorbance was measured at 570 nm with a FLUOstar Omega reader (BMG Labtech GmbH, Ortenberg, Germany). The results are presented as the percentage of the control values (mean ± SD). Each assay was performed in triplicate (n = 18).

Sequence	IC50 (COX-2)	IC50 (COX-1)	MTT test, HECa10 cell count compared to control (HECa10 cells)
EQGFLPGPEESGR [ER-13, EQGFLPGPEESGR]	3.07 µM	4.78 µM	no statistically significant differences
GEHGGAGMGGGQFQPV [GV-16, GEHGGAGMGGGQFQPV]	30.2 µM	8 µM	no statistically significant differences
GNPVGGVGHGTTGT [GT-14, GNPVGGVGHGTTGT]	3.66 µM	12.3 µM	no statistically significant differences
GQLGEHGGAGMG [GG-12, GQLGEHGGAGMG]	15.7 µM	7.11 µM	no statistically significant differences
RLARAGLAQ [RQ-9, RLARAGLAQ]	4.99 µM	0.325 µM	no statistically significant differences
YGNPVGGVGH [YH-10, YGNPVGGVGH]	16.2 µM	17.4 µM	declined statistically significantly
